Source: patent publication US11419869B2, “Dosage forms and regimens for amino acid compounds” (Pliant Therapeutics, Inc., priority 2019, dated 2022)

Assays:
lung Col1a1 expression = assay: Precision cut lung slices, chronic bleomycin, versus pirfenidone and nintedanib (Example B10); format: cell-based, mice; details: 7 days culture, vs DMSO vehicle, FIG. 6A
Description: Mice (C57BL/6) were administered 3 U/kg of bleomycin (Teva Pharmaceuticals; North Wales, Pa.) on Day 0 and 1 U/kg of bleomycin on days 14, 28, 42 and 56 via oropharyngeal aspiration while under anesthesia. At day 70, 14 days following the final bleomycin insult, precision cut lung slices were obtained. Following euthanization, 2% low gelling temp agarose was injected into the mouse lungs via the trachea. […] The lobes were then subjected to precision slicing to obtain samples for culture using a microtome (Compresstome VF-300-0Z, Precisionary; Greenville, N.C.). Individual slices were distributed in a multiwell culture plate and cultured for 7 days under control (DMSO) and test compound conditions. The viability of the slices over the course of culturing was confirmed by WST-1 assay of mitochondrial activity.
During the culture period, slices in the control group were treated with DMSO and slices in the test group were treated with a DMSO solution of one of compound 5; nintedanib; pirfenidone; a combination of nintedanib and compound 5; a combination of pirfenidone and compound 5; or the small molecule ALK5 inhibitor. Compound 5 was […] effective to equal or exceed its respective IC50 values at αvβ6 and αvβ1. The small molecule ALK5 inhibitor was analyzed at […] its reported IC50 value. Nintendanib and pirfenidone were analyzed at concentrations 10× their reported therapeutic concentrations.

SMAD3 phosphorylation = assay: PSMAD3/SMAD3 in healthy mice treated for 4 days; format: in vivo; details: 4 days of treatment
Source text: It has been previously shown that inhibition of αvβ6 in the lung can be detected though measurement of phospho-SMAD (pSMAD) in alveolar macrophages. Alveolar macrophages are known to operate in a unique niche in the lung, distinct from interstitial macrophages. SMAD3 is a downstream target of the active TGF-β cytokine binding its receptor and in alveolar macrophages it is phosphorylated by homoeostatic levels of TGF-β. Accordingly, it was desirable to know whether inhibition of TGF-β activation using the disclosed compounds would result in reduced SMAD2 and SMAD3 phosphorylation.
FIG. 4A is a graph of PSMAD3/SMAD3 in lung tissue from healthy mice administered PBS vehicle and varying levels of compound 5 for 4 days. FIG. 4B is a graph of PSMAD3/SMAD3 in BALF drawn from the same healthy mice administered PBS vehicle and varying levels of compound 5 for 4 days.

[1] = test system: IPF-derived human lung fibroblasts; assay: LAP adhesion binding assay, IPF-derived human lung fibroblasts; format: cell-based; details: adhesion to LAP, cell index (electrical impedance), FIG. 3B
Description: (§1) Two latency associated peptide (LAP) adhesion binding assays were devised using primary human lung cells, including normal (healthy) human bronchial epithelial cells and human lung fibroblasts (healthy and IPF).
Human lung fibroblasts derived from normal and IPF lung tissue are known to express αvβ1 integrin. The IPF-derived human lung fibroblasts were prepared for the assay by dissociation with trypsin/EDTA, and were seeded at 20,000 cells per well on 96 well plates (ACEA Bioscience E-plate View, Acea Biosciences; San Diego, Calif.) previously coated with 5 μg/ml of recombinant human LAP (R&D Systems; Minneapolis, Minn.) and blocked with 4% bovine serum albumin. Cell index (electrical impedance) was measured to assess cell attachment/spreading every 3 minutes for 24 hours at 37° C./5% CO2 using the xCELLigence RTCA MP Instrument (Acea Biosciences; San Diego, Calif.). […] In the assay, the IPF-derived human lung fibroblasts were separately incubated with: the αvβ1-selective small molecule inhibitor; the selective antibody αvβ6 inhibitor, 3G9; and compound 5.

[2] = test system: normal (healthy) human bronchial epithelial cells; assay: LAP adhesion binding assay, normal human bronchial epithelial cells; format: cell-based; details: cell index (electrical impedance), FIG. 3A
Description: as §1
Human bronchial epithelial cells are known to express αvβ6 integrin in culture. Human bronchial epithelial cells were prepared for the assay by dissociation with trypsin/EDTA and were then seeded at 20,000 cells per well on 96 well plates (ACEA Bioscience E-plate View, Acea Biosciences; San Diego, Calif.) previously coated with 5 μg/ml of recombinant human LAP (R&D Systems; Minneapolis, Minn.) and blocked with 4% bovine serum albumin. Cell index (electrical impedance) was measured to assess cell attachment/spreading every 3 minutes for 24 hours at 37° C./5% CO2 using the xCELLigence RTCA MP Instrument (Acea Biosciences; San Diego, Calif.).

**Q.** With COCCN(CCCCc1ccc2c(n1)NCCC2)CC[C@H](Nc1ncnc2ccccc12)C(=O)O [Compound 5, (S)-4-((2-methoxyethyl) (4-(5,6,7,8-tetrahydro-1,8-naphthyridin-2-yl)butyl)amino)-2-(quinazolin-4-ylamino) butanoic acid] as the compound, how does the “lung slice Col1a1 expression” value (lung Col1a1 expression) read?
**A.** Its value is “substantial, statistically significant (p<0.01 vs vehicle) decrease”.

**Q.** And the “PSMAD3/SMAD3 in lung tissue” value (SMAD3 phosphorylation; FIG. 4A)?
**A.** The value was “approximately 50 % of the untreated levels”.

**Q.** And the “PSMAD3/SMAD3 in BALF” value (SMAD3 phosphorylation; cells isolated from BALF, FIG. 4B)?
**A.** Its value is “approximately 50 % of the untreated levels”.

**Q.** And the “cell adhesion in the IPF-derived lung fibroblasts” value [1]?
**A.** The value was “substantially inhibited”.

**Q.** What about the “normal bronchial epithelial cell adhesion to LAP” value [2] of the same compound?
**A.** The value was “substantially inhibited”.
